Drawing on BindingDB's records for PubMed 27409354 (n/a, 2016), this text covers Ki for one compound.

SMILES strings stand for the structures.

The nature of this experiment: Binding affinity to CypD (unknown origin).

One may read the Ki as a measure of affinity in units of concentration, obtained from inhibition or displacement. A low value points to a stronger hold on the target. The compound `O=C(Nc1ccc2nc(-c3ccco3)c(-c3ccco3)nc2c1)N1CCCC1` displayed a Ki of 2000 nM. This counts as single-digit micromolar.
